Reference: BindingDB's records for patent US20250313563 (The Broad Institute, 2025)
Several values for one entry are separate records, joined by “and”; a condition that tells them apart may be missing. Equal values may be shown once.

What was measured:
[1] = target: Glycogen synthase kinase-3 alpha (Homo sapiens, UniProt P49840); experiment: TR-FRET Assay
How it was run: (§1)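 30 min preinc w/ cpd in assay buffer → kinase rxn → EDTA quench → add detection mix (40 nM SA-d2, 2 nM Tb-pSer641 Ab) → TR-FRET read.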

[2] = target: Glycogen synthase kinase-3 beta (Homo sapiens, UniProt P49841); experiment: TR-FRET Assay
Chain of Glycogen synthase kinase-3 beta (P49841 whole entry): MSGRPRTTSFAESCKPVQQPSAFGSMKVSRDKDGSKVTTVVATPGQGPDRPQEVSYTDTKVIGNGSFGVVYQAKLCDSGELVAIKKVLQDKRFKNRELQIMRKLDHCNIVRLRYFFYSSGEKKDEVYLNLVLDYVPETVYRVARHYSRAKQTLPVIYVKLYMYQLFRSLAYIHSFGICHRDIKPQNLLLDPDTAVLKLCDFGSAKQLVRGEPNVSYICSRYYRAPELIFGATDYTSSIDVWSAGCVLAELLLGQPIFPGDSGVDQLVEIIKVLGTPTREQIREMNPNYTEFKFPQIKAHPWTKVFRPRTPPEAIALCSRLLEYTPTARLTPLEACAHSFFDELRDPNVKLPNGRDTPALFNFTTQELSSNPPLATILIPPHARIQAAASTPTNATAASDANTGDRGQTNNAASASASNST
How it was run: as §1

Chain of Glycogen synthase kinase-3 alpha (P49840 whole entry): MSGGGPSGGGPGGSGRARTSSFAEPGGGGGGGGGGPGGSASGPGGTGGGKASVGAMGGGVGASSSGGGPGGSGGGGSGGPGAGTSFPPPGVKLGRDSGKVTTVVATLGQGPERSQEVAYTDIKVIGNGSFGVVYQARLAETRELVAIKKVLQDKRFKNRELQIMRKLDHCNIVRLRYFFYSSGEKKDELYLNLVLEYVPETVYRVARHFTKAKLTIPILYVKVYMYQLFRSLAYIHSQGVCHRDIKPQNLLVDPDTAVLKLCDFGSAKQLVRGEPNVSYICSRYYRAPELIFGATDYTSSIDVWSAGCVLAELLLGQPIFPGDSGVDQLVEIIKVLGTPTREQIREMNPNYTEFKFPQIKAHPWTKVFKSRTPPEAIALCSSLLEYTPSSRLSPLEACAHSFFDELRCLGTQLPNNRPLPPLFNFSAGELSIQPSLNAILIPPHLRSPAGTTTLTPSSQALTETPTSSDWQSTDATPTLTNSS

SMILES | IC50 [1] | IC50 [2]
CC[C@@]1(c2cccc(-c3cnn(CC4CCOC4)c3)c2)C2=CN=NC2NC2=C1C(=O)NC(C)(C)C2 (stereo partly specified) [US20250313563, Compound 951836] | 0.1 to 1 µM | 1 to 5 µM
CC1(C)CC(=O)C2=C(C1)NC1=C(CN=N1)C21COC2(CN(C(=O)C3CC3(F)F)C2)C1 (stereo unspecified) [US20250313563, Compound 947272] | < 0.1 µM | < 0.1 µM
CCC1(c2cccc(-c3cn(C)nc3C)c2)C2=C(CC(C)(C)NC2=O)NC2N=NC(C(F)(F)F)=C21 (stereo unspecified) [US20250313563, Compound 947567] | < 0.1 µM | < 0.1 µM
CC[C@@]1(c2cccc(-c3ccncc3C)c2)C2=CN=NC2NC2=C1C(=O)NC(C)(C)C2 (stereo partly specified) [US20250313563, Compound 947574] | < 0.1 µM | < 0.1 µM
CCC1(c2cccc(-c3ccncc3CO)c2)C2=CN=NC2NC2=C1C(=O)CC(C)(C)C2 (stereo unspecified) [US20250313563, Compound 943539] | < 0.1 µM | < 0.1 µM
CCC1(c2cccc(C(F)(F)F)c2)C2=CN=NC2NC2=C1C(=O)N(c1cccs1)CC2 (stereo unspecified) [US20250313563, Compound 950614] | < 0.1 µM | 0.1 to 1 µM
CC[C@]1(c2cccc(-c3cn(C)nc3C)c2)C2=C(CC(C)(C)NC2=O)NC2N=NC(C)=C21 (stereo partly specified) [US20250313563, Compound 945996] | 0.1 to 1 µM | 1 to 5 µM
CCC1(c2cccc(N3CC4CCC3C4)c2)C2=CN=NC2NC2=C1C(=O)CC(C)(C)C2 (stereo unspecified) [US20250313563, Compound 885110] | < 0.1 µM | 0.1 to 1 µM
CC[C@]1(c2cccc(C(F)(F)F)c2)C2=CN=NC2NC2=C1C(=O)N(C)C[C@@H]2C (stereo partly specified) [US20250313563, Compound 883979] | < 0.1 µM | < 0.1 µM
CCC1(c2cccc(-c3c(C)nn(C)c3C)c2)C2=CN=NC2NC2=C1C(=O)NC(C)(C)C2 (stereo unspecified) [US20250313563, Compound 945462] | < 0.1 µM | < 0.1 µM
CC1(C)CC(=O)C2=C(C1)NC1=C(CN=N1)C21CCN(S(=O)(=O)c2cn3c(n2)CCCC3)CC1 [US20250313563, Compound 947472] | < 0.1 µM | 0.1 to 1 µM
CC[C@@]1(c2cccc(-c3cnn(C4CCCCC4)c3)c2)C2=CN=NC2NC2=C1C(=O)NC(C)(C)C2 (stereo partly specified) [US20250313563, Compound 951707] | 0.1 to 1 µM | 1 to 5 µM
CC1(C)CC(=O)C2=C(C1)NC1=C(CN=N1)C21CC2(CCCC2)C1 [US20250313563, Compound 874477] | < 0.1 µM and 0.1 to 1 µM | < 0.1 µM and 1 to 5 µM
CCC1(c2cccc(-c3ccnc(OC)c3C)c2)C2=CN=NC2NC2=C1C(=O)CC(C)(C)C2 (stereo unspecified) [US20250313563, Compound 932628] | < 0.1 µM | 0.1 to 1 µM
CC[C@@]1(c2cccc(C3=C4CC=C(Cl)C=C4N=CC3)c2)C2=CN=NC2NC2=C1C(=O)NC(C)(C)C2 (stereo partly specified) [US20250313563, Compound 948368] | < 0.1 µM | 0.1 to 1 µM
CCN(c1cccc(C2(CC)C3=CN=NC3NC3=C2C(=O)CC(C)(C)C3)c1)c1cccnc1C (stereo unspecified) [US20250313563, Compound 885367] | 0.1 to 1 µM | 1 to 5 µM
CC[C@@]1(c2cccc(C(F)(F)F)c2)C2=CN=NC2NC2=C1C(=O)N(C(C)C)CC2 (stereo partly specified) [US20250313563, Compound 857362] | > 5 µM | > 5 µM
CC[C@@]1(c2cccc(C(F)(F)F)c2)C2=C(NC3=NN=CC31)c1ccccc1C2=O (stereo partly specified) [US20250313563, Compound 949742] | 0.1 to 1 µM | 0.1 to 1 µM
Cc1cccc(S(=O)(=O)N2CC[C@]3(C2)C2=C(N=NC2)NC2=C3C(=O)CC(C)(C)C2)c1 [US20250313563, Compound 951864] | < 0.1 µM | < 0.1 µM and 1 to 5 µM

SMILES | IC50 [1] | IC50 [2]
CC1(C)CC(=O)C2=C(C1)NC1=C(CN=N1)C21CCN(S(=O)(=O)c2ccc(C(F)(F)F)cc2)CC1 [US20250313563, Compound 947256] | < 0.1 µM | < 0.1 µM
CCC1(c2cccc(N(C)C(C)=O)c2)C2=CN=NC2NC2=C1C(=O)CC(C)(C)C2 (stereo unspecified) [US20250313563, Compound 801319] | < 0.1 µM | < 0.1 µM
CC[C@]1(c2cccc(C3=C4CC=C(F)C=C4N=CC3)c2)C2=CN=NC2NC2=C1C(=O)NC(C)(C)C2 (stereo partly specified) [US20250313563, Compound 948519] | > 5 µM | > 5 µM
CC[C@@]1(c2cccc(-c3cn(C)nc3C)c2)C2=C(N=NC2)NC2=C1C(=O)C(C)(C)C2 [US20250313563, Compound 951702] | 0.1 to 1 µM | 0.1 to 1 µM
Cc1ccc(C(=O)N2CC3(C2)CC2(CO3)C3=C(N=NC3)NC3=C2C(=O)CC(C)(C)C3)cc1 (stereo unspecified) [US20250313563, Compound 947290] | < 0.1 µM | < 0.1 µM
CC[C@]1(c2cccc(C(C)C)c2)C2=C(CC(C)(C)NC2=O)NC2N=NC(C)=C21 (stereo partly specified) [US20250313563, Compound 949649] | < 0.1 µM and 0.1 to 1 µM | < 0.1 µM and 1 to 5 µM
CC1(C)CC(=O)C2=C(C1)NC1=C(CN=N1)C21CN(c2ccccn2)C1 [US20250313563, Compound 945477] | 1 to 5 µM | 1 to 5 µM
CC[C@]1(c2cccc(-c3ccnc(C)c3)c2)C2=CN=NC2NC2=C1C(=O)N[C@@]1(CCOC1)C2 (stereo partly specified) [US20250313563, Compound 948140] | < 0.1 µM | 0.1 to 1 µM
CC[C@@]1(c2cccc(N(C)c3ccnc(F)c3)c2)C2=CN=NC2NC2=C1C(=O)CC(C)(C)C2 (stereo partly specified) [US20250313563, Compound 929453] | 1 to 5 µM | > 5 µM
CC[C@]1(c2cccc(-c3c(F)cncc3Cl)c2)C2=CN=NC2NC2=C1C(=O)NC(C)(C)C2 (stereo partly specified) [US20250313563, Compound 948363] | 1 to 5 µM | > 5 µM
CC1(C)CC(=O)C2=C(C1)NC1=C(CN=N1)C21COC2(CN(C(=O)c3cccc(F)c3)C2)C1 (stereo unspecified) [US20250313563, Compound 947283] | < 0.1 µM | < 0.1 µM
CC[C@@]1(c2cccc(C(F)(F)F)c2)C2=CN=NC2NC2=C1C(=O)N(c1ccccc1)CC2 (stereo partly specified) [US20250313563, Compound 929475] | > 5 µM | > 5 µM
CC[C@]1(c2cccc(-c3ccncc3)c2)C2=CN=NC2NC2=C1C(=O)C[C@H](C)C2 (stereo partly specified) [US20250313563, Compound 874318] | < 0.1 µM | 0.1 to 1 µM
CC[C@@H]1CCN1c1cccc([C@@]2(CC)C3=CN=NC3NC3=C2C(=O)CC(C)(C)C3)c1 (stereo partly specified) [US20250313563, Compound 911970] | < 0.1 µM | 0.1 to 1 µM
CCC1(c2cccc(N(C)C(=O)c3ccccc3)c2)C2=CN=NC2NC2=C1C(=O)CC(C)(C)C2 (stereo unspecified) [US20250313563, Compound 909201] | < 0.1 µM | 0.1 to 1 µM
CC[C@@]1(c2cccc(-c3cnn(-c4cnccn4)c3)c2)C2=CN=NC2NC2=C1C(=O)NC(C)(C)C2 (stereo partly specified) [US20250313563, Compound 952207] | 0.1 to 1 µM | 1 to 5 µM
CC(C)(C)CC1N=NC2=C1[C@](C)(c1cccc(S(=O)(=O)CC3CC3)c1)C1=C(CC(C)(C)NC1=O)N2 (stereo partly specified) [US20250313563, Compound 108005] | 0.1 to 1 µM | 0.1 to 1 µM
CC[C@@]1(c2cccc(-c3ccnc(C)c3)c2)C2=C(CC(C)(C)NC2=O)NC2N=NC(C(F)(F)F)=C21 (stereo partly specified) [US20250313563, Compound 948774] | < 0.1 µM | < 0.1 µM
CC[C@@]1(c2cccc(N3CCCc4ncccc43)c2)C2=CN=NC2NC2=C1C(=O)CC(C)(C)C2 (stereo partly specified) [US20250313563, Compound 917079] | 0.1 to 1 µM | 1 to 5 µM
